Data published in patent US20220332763A1, “FUSED POLYPEPTIDE AND USE THEREOF” (NANJING ANJI BIOLOGICAL TECHNOLOGY CO., LTD., priority 2019, published 2022).

Legend:
Settings in all cases: Homo sapiens, 48 h, read-out: Inhibitory effect (%) on tumor growth
Head and neck cancer = test: cells
Protocol: (§1) A plurality of types of human tumor cells were cultured in a 5% CO2 incubator at 37° C. and digested with trypsin when the density was 90% or above. The cells were resuspended in a culture solution and counted, and the cell concentration was adjusted to 2×10^4 cells/mL. The cell suspension was inoculated into a 96-well plate with 100 μL per well, and then cultured overnight in a 5% CO2 incubator at 37° C. After the cells completely adhered to the wall, each polypeptide according to the present invention was added as an administration group, and the culture solution without any drug was used as a blank control group. The solutions were diluted to 1 μmol/L by using a diluent. Each diluent was separately added to the 96-well plate with 100 per well, and the cells continued to be cultured in a 5% CO2 incubator for 48 hours at 37° C. Then 20 μL of MTT was added, and the cells continued to be cultured for 4 hours. The medium was sucked, and 100 μL of DMSO was added to each well for dissolution. Absorbance was measured by a microplate reader at a detection wavelength of 570 nm and a reference wavelength of 630 nm, and the growth inhibition rate was calculated. The formula was as follows: tumor growth inhibition rate (%)=(1−absorbance of the administration group/absorbance of the blank group)*100%. The experiment was repeated independently for 3 times.

Brain cancer = test: cells
Protocol: as §1

Esophageal cancer = test: cells
Protocol: as §1

Pancreatic cancer = test: cells
Protocol: as §1

Thyroid cancer = test: cells
Protocol: as §1

Liver cancer = test: cells
Protocol: as §1

Breast cancer = test: cells
Protocol: as §1

Gastric cancer = test: cells
Protocol: as §1

Kidney cancer = test: cells
Protocol: as §1

Colorectal cancer = test: cells
Protocol: as §1

Ovarian cancer = test: cells
Protocol: as §1

Cervical cancer = test: cells
Protocol: as §1

Prostate cancer = test: cells
Protocol: as §1

Melanoma = test: cells
Protocol: as §1

Hemangioma = test: cells
Protocol: as §1

Sarcoma = test: cells
Protocol: as §1

Lung cancer = test: cells
Protocol: as §1

Uterus cancer = test: tissue or blood
Protocol: as §1

## CC(=O)O[C@@]12CO[C@@H]1C[C@H](O)[C@@]1(C)C(=O)[C@H](O)C3=C(C)[C@@H](OC(=O)[C@H](O)[C@@H](NC(=O)OC(C)(C)C)c4ccccc4)C[C@@](O)([C@@H](OC(=O)c4ccccc4)[C@H]21)C3(C)C [Docetaxel]
Head and neck cancer
  inhibition at 1 µM: 62.5 ± 2.12%
Brain cancer
  inhibition at 1 µM: 68.1 ± 10.3%
Esophageal cancer
  inhibition at 1 µM: 64.4 ± 8.06%
Pancreatic cancer
  inhibition at 1 µM: 76.7 ± 10.1%
Thyroid cancer
  inhibition at 1 µM: 73.2 ± 19.3%
Liver cancer
  inhibition at 1 µM: 74.2 ± 11.7%
Breast cancer
  inhibition at 1 µM: 65.1 ± 10.7%
Gastric cancer
  inhibition at 1 µM: 74.2 ± 6.38%
Kidney cancer
  inhibition at 1 µM: 75.5 ± 10.2%
Colorectal cancer
  inhibition at 1 µM: 53.5 ± 10.4%
Ovarian cancer
  inhibition at 1 µM: 62.8 ± 20.2%
Cervical cancer
  inhibition at 1 µM: 66.6 ± 11.3%
Prostate cancer
  inhibition at 1 µM: 78.4 ± 4.21%
Melanoma
  inhibition at 1 µM: 68.4 ± 6.23%
Hemangioma
  inhibition at 1 µM: 78.8 ± 6.16%
Sarcoma
  inhibition at 1 µM: 62.5 ± 8.75%
Lung cancer
  inhibition at 1 µM: 73.3 ± 7.03%
Uterus cancer
  inhibition at 1 µM: 57.2 ± 12.3%
